Test [1] concerns alcohol oxidase (Hansenula sp.). Put plainly: KM by the Hanes method, electrochemistry, alcohol oxidase of Hansenula sp. Type of test: biochemical. The conditions noted are these: Hansenula sp. enzyme. The protocol: (§1) The Michaelis-Menten constant (KM) of an enzyme can be determined in an aqueous environment from the initial reaction rate of the enzyme catalyzed reaction, by either calorimetric or electrochemical analysis. The initial reaction rate was determined using both methods, based on the results obtained for different concentrations of methanol and ethanol and various alcohol oxydases (Hansenula sp., Pichia pastoris and Candida boidinii). Using the Hanes method (diagram of the concentration/initial rate as a function of the initial concentration of the substrate in the reaction medium), the KM can be calculated, which corresponds to the origin of the straight line, opposite the abscissa.

Test [2] deals with alcohol oxidase (Pichia pastoris) (Komagataella phaffii, UniProt P04842). The note with it: Pichia pastoris enzyme. The protocol: as §1
Test [3] concerns the target alcohol oxidase (Candida boidini) (Candida boidinii, UniProt Q00922). The note with it: Candida boidini enzyme, electrochemistry.
The target in test [4] is T1, alcohol oxidase (Komagataella phaffii, UniProt P04842).
T1 construct: purchased Sigma A-2404
T1 sequence (P04842 1-663): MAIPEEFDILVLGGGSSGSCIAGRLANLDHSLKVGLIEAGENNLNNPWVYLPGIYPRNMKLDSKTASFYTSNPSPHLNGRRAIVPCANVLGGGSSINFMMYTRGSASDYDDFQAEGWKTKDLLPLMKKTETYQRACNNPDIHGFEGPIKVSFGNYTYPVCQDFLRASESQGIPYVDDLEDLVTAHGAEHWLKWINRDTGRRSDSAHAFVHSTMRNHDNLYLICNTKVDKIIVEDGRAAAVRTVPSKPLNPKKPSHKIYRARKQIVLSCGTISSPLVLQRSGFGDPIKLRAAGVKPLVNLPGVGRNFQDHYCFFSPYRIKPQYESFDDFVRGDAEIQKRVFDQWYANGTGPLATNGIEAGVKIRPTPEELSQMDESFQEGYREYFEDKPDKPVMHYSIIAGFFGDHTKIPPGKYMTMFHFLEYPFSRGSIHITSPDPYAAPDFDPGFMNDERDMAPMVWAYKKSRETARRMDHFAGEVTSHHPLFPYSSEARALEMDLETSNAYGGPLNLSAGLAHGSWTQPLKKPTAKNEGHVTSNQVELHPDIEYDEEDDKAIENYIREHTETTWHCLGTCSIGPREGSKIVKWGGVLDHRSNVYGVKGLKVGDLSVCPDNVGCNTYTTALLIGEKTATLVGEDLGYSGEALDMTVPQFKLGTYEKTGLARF
Put plainly: Tests to improve the observed signals: effect of SDS on enzyme activity. It counts as biochemical. The note with it: SDS 0.1%. The procedure: Tests aiming to improve the observed signals were carried out. Low concentrations of SDS (0.1%) allow for a uniform deposit of a sample on the surface of the working electrode, while simultaneously increasing the enzyme activity by a factor of 110%.

Molecules are shown by their SMILES. Where two headings read alike, the source gives them in different places.

As usually defined, the Km is the substrate concentration at which the rate is half of its maximum.

Chain of alcohol oxidase (Candida boidini) (Q00922 2-663 limits assumed): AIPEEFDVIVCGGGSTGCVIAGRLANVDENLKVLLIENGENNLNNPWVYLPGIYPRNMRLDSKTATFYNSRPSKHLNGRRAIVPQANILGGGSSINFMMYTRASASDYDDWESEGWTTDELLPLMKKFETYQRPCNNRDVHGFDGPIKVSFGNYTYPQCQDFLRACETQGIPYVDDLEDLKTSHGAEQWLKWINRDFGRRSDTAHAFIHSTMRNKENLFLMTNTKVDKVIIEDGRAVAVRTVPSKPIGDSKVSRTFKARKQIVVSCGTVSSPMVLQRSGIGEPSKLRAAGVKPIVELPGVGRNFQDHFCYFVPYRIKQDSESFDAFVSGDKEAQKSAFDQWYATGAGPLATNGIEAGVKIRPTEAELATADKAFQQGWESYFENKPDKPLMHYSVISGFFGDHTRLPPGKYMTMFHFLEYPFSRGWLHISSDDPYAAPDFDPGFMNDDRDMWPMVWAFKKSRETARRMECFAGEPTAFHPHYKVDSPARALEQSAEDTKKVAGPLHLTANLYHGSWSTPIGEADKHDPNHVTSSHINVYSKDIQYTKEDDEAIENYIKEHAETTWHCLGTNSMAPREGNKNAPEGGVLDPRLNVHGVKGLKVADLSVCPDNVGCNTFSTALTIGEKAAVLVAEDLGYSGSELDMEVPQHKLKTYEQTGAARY

`CCO` [EtOH, ethanol]: the Km in test [1] ([EtOH] 0.25-5.0 mM, read-out: KM EtOH) was found to be 6000 µM; in test [2] (read-out: KM EtOH, [EtOH] 0.05-3.3 mM, colorimetry), 3460 µM; in test [2] (read-out: KM EtOH, [EtOH] 0.25-5.0 mM, electrochemistry) it was 2610 µM; in test [2] (read-out: KM EtOH, [EtOH] 2.5-10.0 mM, electrochemistry), 2910 µM; in test [3] (read-out: KM EtOH, [EtOH] 0.25-1.25 mM), 8410 µM.
For `CO` [MeOH, methanol], the Km in test [1] ([MeOH] 0.05-2.5 mM, read-out: KM MeOH) came out at 390 µM; in test [2] (read-out: KM MeOH, [MeOH] 0.02-2.5 mM, colorimetry), 640 µM; in test [2] (read-out: KM MeOH, [MeOH] 0.05-2.5 mM, electrochemistry) it was 310 µM; in test [2] (read-out: KM MeOH, [MeOH] 0.125-1.0 mM, electrochemistry), 560 µM; in test [3] (read-out: KM MeOH, [MeOH] 0.05-0.5 mM), 290 µM.
Take `CCCCCCCCCCCCOS(=O)(=O)[O-].[Na+]` [SDS]: the “increasing the enzyme activity by a factor of” value in test [4] came out at 110%.

The values are drawn from patent publication US20060099666A1, “Analyzer for the simultaneous enzymatic detection of closely related analytes” (Medinov, Inc., priority 2002, published 2006).
